Test results: PMC6352951, “Computationally driven discovery of phenyl(piperazin-1-yl)methanone derivatives as reversible monoacylglycerol lipase (MAGL) inhibitors” (Journal of Enzyme Inhibition and Medicinal Chemistry, 2019)
Like-named read-outs stand apart in the source and are kept apart here. Values belong to the compound of their own block, whether it stands above or below them.

Columns and labels:
[1] = tested on: breast MDA-MB-231 cancer cells; experiment: Cell viability assay; assay type: cell-based, human; conditions: 96 h, mean ± SD
Experimental: (§1) Human breast MDA-MB-231, colorectal HCT116 and ovarian CAOV3, OVCAR3, and SKOV3 cancer cells (from ATCC) were maintained at 37 °C in a humidified atmosphere containing 5% CO2 according to the supplier. Cells (5 × 10^2) were plated in 96-well culture plates. The day after seeding, vehicle or compounds were added at different concentrations to the medium. Compounds were added to the cell culture at a concentration ranging from 200 to 0.02 μM. Cell viability was measured after 96 h according to the supplier (Promega, cat. n° G7571) with a Tecan M1000 PRO instrument. IC50 values were calculated from logistical dose-response curves. Averages were obtained from triplicates and error bars are standard deviations.

[2] = tested on: colorectal HCT116 cancer cells; experiment: Cell viability assay; assay type: cell-based, human; conditions: 96 h, mean ± SD
Experimental: as §1

[3] = tested on: ovarian CAOV3 cancer cells; experiment: Cell viability assay; assay type: cell-based, human; conditions: 96 h, mean ± SD
Experimental: as §1

[4] = tested on: ovarian OVCAR3 cancer cells; experiment: Cell viability assay; assay type: cell-based, human; conditions: 96 h, mean ± SD
Experimental: as §1

[5] = tested on: ovarian SKOV3 cancer cells; experiment: Cell viability assay; assay type: cell-based, human; conditions: 96 h, mean ± SD
Experimental: as §1

Human recombinant MAGL = target: T1, Human recombinant MAGL (Homo sapiens, UniProt Q99685); experiment: MAGL inhibition assay (4-NPA substrate, absorbance at 405 nm); assay type: biochemical
T1 construct: purchased Cayman Chemical
T1 sequence (Q99685 1-303): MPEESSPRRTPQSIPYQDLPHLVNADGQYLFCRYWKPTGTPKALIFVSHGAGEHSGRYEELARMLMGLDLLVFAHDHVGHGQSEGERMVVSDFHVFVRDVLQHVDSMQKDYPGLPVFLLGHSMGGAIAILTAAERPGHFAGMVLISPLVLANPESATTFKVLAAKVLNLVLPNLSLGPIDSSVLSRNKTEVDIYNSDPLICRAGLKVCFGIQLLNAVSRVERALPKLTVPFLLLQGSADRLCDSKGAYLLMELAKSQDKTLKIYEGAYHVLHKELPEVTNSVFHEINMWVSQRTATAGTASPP
Experimental: Compounds 1–3 were purchased from ChemBridge corporation, whereas compounds 4 and 5 were synthesized. Human recombinant MAGL, 4-nitrophenyl acetate substrate (4-NPA) and CAY10499 were purchased from Cayman Chemical. The IC50 values were generated in 96-well microtiter plates. The MAGL reaction was conducted at rt at a final volume of 200 µL in […] Tris buffer, pH 7.2, containing […] EDTA. A total of 150 µL of 4-NPA 133.3 µM was added to 10 µL of DMSO containing the appropriate amount of compound. The reaction was initiated by the addition of 40 µL of MAGL (11 ng/well) in such a way that the assay was linear over 30 min. The final concentration of the analyzed compounds ranged from 10 to 0.00001 µM for CAY10499 and from 200 to 0.0128 µM for the other compounds. After the reaction had proceeded for 30 min, absorbance values were then measured by using a VictorX3 PerkinElmer instrument at 405 nm. Two reactions were also run: one reaction containing no compounds and the second one containing neither inhibitor nor enzyme. To remove possible false positive results, a blank analysis was carried out for each compound concentration and the final absorbance results were obtained detracting the absorbance produced by the presence of all the components except MAGL in the same conditions.

[6] = tested on: MDA-MB-231, HCT116, CAOV3, OVCAR3 and SKOV3 cancer cells; experiment: Cell viability assay, range over all tested cell lines; assay type: cell-based; conditions: Homo sapiens, 96 h
Experimental: as §1

[7] = 30 min reaction, no DTT, read-out: MAGL inhibition IC50

IC50 [1]: 82 ± 5 µM
IC50 [2]: 45 ± 3 µM
IC50 [3]: 90 ± 6 µM
IC50 [4]: 52 ± 3 µM
IC50 [5]: 38 ± 4 µM
Structure (SMILES): COc1nn(-c2ccc(NC(=O)OCc3ccccc3)c(C)c2)c(=O)o1 [CAY10499, reference compound]

Structure (SMILES): O=C(c1ccc(-c2ccccc2)cc1)N1CCN(c2cccc(Cl)c2)CC1 [compound 1]
IC50 (Human recombinant MAGL; [7]): 23.3 µM

IC50 (Human recombinant MAGL; [7]): 6.1 µM
IC50 (Human recombinant MAGL; in the presence of 10 μM DTT, read-out: MAGL inhibition IC50 in the presence of DTT): 6.2 µM
Fold improvement of MAGL inhibition activity with respect to compound 1 (Human recombinant MAGL; ratio of IC50 values vs compound 1): 4 fold
Fold higher MAGL inhibition activity than compound 5 (Human recombinant MAGL; ratio of IC50 values vs compound 5): 5 fold
IC50 ([1]; Homo sapiens, MDA-MB-231): 59 ± 5 µM
IC50 ([2]; Homo sapiens, HCT-116): 48 ± 2 µM
IC50 ([3]; Homo sapiens, Caov-3): 51 ± 3 µM
IC50 ([4]; Homo sapiens, OVCAR-3): 72 ± 4 µM
IC50 ([5]; Homo sapiens, SK-OV-3): 31 ± 2 µM
IC50 [6]: 31 to 72 µM
Structure (SMILES): O=C(c1ccc(-c2cccc3ccc(O)cc23)cc1)N1CCN(c2cccc(Cl)c2)CC1 [compound 4]
Effect of preincubation time on MAGL inhibitory potency (reversibility) (Human recombinant MAGL; preincubated with the enzyme for 0, 30 and 60 min before adding substrate): did not show any significant increase in inhibitory potency at longer incubation times

IC50 (Human recombinant MAGL; [7]): 31.9 µM
Structure (SMILES): O=C(c1ccc(-c2ccccc2)cc1)N1CCN(c2cccc3ccc(O)cc23)CC1 [compound 5]
